Measured values reported in PubChem BioAssay (NCI).
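All cell lines were grown in 96-well plates and treated with compound for 48 hours. TGI denotes the concentration required for complete inhibition of growth.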

Legend:
Assay in all cases: NCI-60 cell line screen, 48 h
BT-549 breast = system: BT-549 breast
HCT-116 colon = system: HCT-116 colon
HT29 colon = system: HT29 colon
IGROV1 ovarian = system: IGROV1 ovarian
KM12 colon = system: KM12 colon
MCF7 breast = system: MCF7 breast
MDA-N = system: MDA-N
NCI-H226 lung = system: NCI-H226 lung
NCI-H522 lung = system: NCI-H522 lung
OVCAR-3 ovarian = system: OVCAR-3 ovarian
OVCAR-8 ovarian = system: OVCAR-8 ovarian
PC-3 prostate = system: PC-3 prostate
SF-268 CNS = system: SF-268 CNS
SW-620 colon = system: SW-620 colon
T-47D breast = system: T-47D breast
U251 CNS = system: U251 CNS
UACC-62 melanoma = system: UACC-62 melanoma
CCRF-CEM leukemia = system: CCRF-CEM leukemia
SR leukemia = system: SR leukemia

Row | Compound | TGI (BT-549 breast) [µM] | TGI (HCT-116 colon) [µM] | TGI (HT29 colon) [µM] | TGI (IGROV1 ovarian) [µM] | TGI (KM12 colon) [µM] | TGI (MCF7 breast) [µM] | TGI (MDA-N) [µM] | TGI (NCI-H226 lung) [µM] | TGI (NCI-H522 lung) [µM] | TGI (OVCAR-3 ovarian) [µM] | TGI (OVCAR-8 ovarian) [µM] | TGI (PC-3 prostate) [µM] | TGI (SF-268 CNS) [µM] | TGI (SW-620 colon) [µM] | TGI (T-47D breast) [µM] | TGI (U251 CNS) [µM] | TGI (UACC-62 melanoma) [µM] | TGI (CCRF-CEM leukemia) [µM] | TGI (SR leukemia) [µM]
1 | COc1ccc(Cc2c(N)[nH]c(=O)n(C)c2=O)cc1 | > 100 | > 100 | > 100 | > 100 | > 100 | 22.2 | > 100 | > 100 | > 100 | > 100 | > 100 | > 100 | > 100 | > 100 | > 100 | > 100 | > 100 |  | 
2 | c1ccc(-c2cs[s+]c2)cc1 | > 100 | > 100 | > 100 | > 100 | > 100 | > 100 | > 100 | > 100 | > 100 | > 100 | > 100 | > 100 | > 100 | > 100 | > 100 | > 100 | > 100 | 83.1 | > 100
3 | CCOP1(=O)C=C(Sc2ccc([N+](=O)[O-])cc2[N+](=O)[O-])C(C)(C)O1 (centres undefined) | 32.2 | 18.8 | > 75.9 | 30.4 | 38.6 | 17.2 | 17.6 | 47.2 | 9.36 | 25.9 | 35.4 | > 50.1 | 49.5 | > 52.2 | 32 | 30.3 | 26.4 | 16.4 | 7.17
4 | Cc1nn(C(=O)c2ccncc2)c2c1C(c1ccc(Cl)cc1)SC(N)=N2 (centres undefined) | > 10 | > 10 | > 10 | > 10 | > 10 | > 10 | > 10 | > 10 |  | > 10 | > 10 | > 10 | > 10 | > 10 | > 10 |  | > 10 | > 10 | > 10
5 | N#CCCSC1SC(=C2SC3=C(SCCS3)S2)SC1SCCC#N (centres undefined) | > 100 | > 100 | > 100 | > 100 |  | > 100 | > 100 |  | > 100 | > 100 | > 100 | > 100 | > 100 | > 100 | > 100 | > 100 | > 100 | > 100 | > 100
6 | C=C1CCC2CC1[C@@H](C(=O)c1c[nH]c3ccccc13)NC2(C)C (some centres undefined) | > 37.5 | > 37.5 | > 37.5 | > 37.5 | > 37.5 | > 37.5 | > 37.5 | > 37.5 | > 37.5 | > 37.5 | > 37.5 | > 37.5 | > 37.5 | > 37.5 | > 37.5 | > 37.5 | > 37.5 | > 37.5 | > 37.5
7 | CCCCCCCCCCCCCCCCCCNc1ccn(C2OC(CO)C(O)C2O)c(=O)n1 (centres undefined) | > 100 | > 100 | > 100 | > 92.2 | > 100 | > 100 | > 100 | > 100 | > 100 | > 100 | > 100 | > 89.1 | > 100 | > 100 | > 100 | > 100 | > 100 | 30.4 | > 100
8 | Cc1cc(C)nc(NC(=S)Nc2ccccc2Cl)c1 | > 100 | > 100 | > 100 | > 100 | > 100 | > 100 | > 100 | > 100 | > 100 | > 100 | > 100 | > 100 | > 100 | > 100 | > 100 | > 100 | > 100 | > 100 | > 100
9 | COc1ccc(N=Nc2ccc3oc(=O)c(C(=O)Nc4ccccc4)cc3c2)cc1 | > 10 | > 10 | > 10 | > 10 | > 10 | > 10 | > 10 | > 10 | > 10 | > 10 | > 10 | > 10 | > 10 | > 10 | > 10 | > 10 | > 10 |  | > 10
10 | O=C(c1ccco1)n1c2ccc(Br)cc2c2nc3ccccc3nc21 | > 100 | > 100 | > 100 | > 100 | 97.6 | > 100 | > 100 | > 100 | 41.5 | > 100 | > 100 | > 100 | > 100 | > 100 | > 100 | > 100 | > 100 | > 100 | > 100
11 | CCCc1c(O)c(=O)c2c(OC)cc(OC)c3c4c(OC)cc(OC)c5c(=O)c(O)c(CCC)c(c1c23)c54 | 10.1 | 1.23 | 6.75 | 3.97 | 5.41 | 15.3 | 12.2 | 10.9 | 1.15 | > 27.7 | 3.38 | 18.2 | 19.5 | 12.2 | 5.73 | 11.3 | 1.88 | 0.582 | 0.463
12 | N#CCC(=O)c1cc(OCc2cc(OCc3ccc(Br)cc3)cc(OCc3ccc(Br)cc3)c2)cc(OCc2cc(OCc3ccc(Br)cc3)cc(OCc3ccc(Br)cc3)c2)c1 | > 100 | > 100 |  |  | > 100 | > 100 | > 100 | > 100 | > 100 | > 100 |  | > 100 | > 100 |  | > 100 | > 100 | > 100 |  | 
13 | Cc1nc(-n2[nH]c(C)c(CCO)c2=O)[nH]c(=O)c1CCO | > 100 | > 100 | > 100 | > 100 | > 100 | > 100 | > 100 | > 100 | > 100 | > 100 | > 100 | > 100 | > 100 | > 100 | > 100 | > 100 | > 100 | > 100 | > 100
14 | CCCCn1cnnc1NS(=O)(=O)c1cc(C)c(Cl)cc1SCC(=O)O | > 10 | > 10 | > 10 | > 10 | > 10 |  | > 10 | > 10 | > 10 | > 10 | > 10 | > 10 | > 10 | > 10 | > 10 | > 10 | > 10 | > 10 | 
15 | O=C1NC(=S)NC(=O)C1C(c1ccc([N+](=O)[O-])cc1)C1C(=O)NC(=S)NC1=O | > 100 | > 100 | > 100 | > 100 | > 100 | > 100 | > 100 | > 100 | > 100 | > 100 | > 100 | > 100 |  | > 100 | > 100 | > 100 | > 100 | > 100 | 
16 | CCN(CCCN(CC)C(=O)Nc1ccccc1)C(=O)Nc1ccccc1 | > 100 | > 100 | > 100 | > 100 | > 100 | > 100 | > 100 | > 100 | > 100 | > 100 | > 100 | > 100 |  | > 100 | > 100 | > 100 | > 100 | > 100 | > 100
17 | c1cc(CSP234N5CCN2CCN3CCN4CC5)ccc1CSP123N4CCN1CCN2CCN3CC4 | > 100 | > 100 | > 100 | > 100 | > 100 | > 100 | > 100 |  | > 100 | > 100 | > 100 | > 100 | > 100 | > 100 | > 100 | > 100 | > 100 | > 100 | 
18 | CCN1CN(c2ccccc2)C2(CCN(CCCSc3ccc(F)cc3)CC2)C1=O | 21.4 | 14.9 | 13.3 | 19.7 | 28.9 | 12.2 | 26.4 | 33.7 | 30 | 27.2 | 30.5 | 28.1 | 28.3 | 26.1 | 17.2 |  | 30.2 | 24.6 | 36.5
19 | CC1=C(O)C(=O)C[C@]2(C)[C@H]3CC=C4[C@@H]5CC(C)(C)CC[C@@H]5C(=O)[C@H](O)[C@@]4(C)[C@]3(C)CC[C@@H]12 | > 50 | > 50 | > 50 | > 50 | > 50 | > 50 | > 50 | > 50 | > 50 | > 50 | > 50 | > 50 | > 50 | > 50 | > 50 | > 50 | > 50 | > 50 | 
20 | COC(=O)C1CC=C(SC(=O)c2ccccc2)N1C(=O)c1ccccc1 (centres undefined) | > 100 | > 100 | > 100 | > 100 | > 100 | > 100 | > 100 |  | > 100 | > 100 | > 100 | > 100 | > 100 | > 100 | > 100 | > 100 | > 100 |  | 
21 | CCOC(=O)c1sc2nc(SC)nc3c2c1NCN3c1ccc2c(c1)OCCCO2 | > 100 | > 100 |  | > 100 | > 100 | > 100 | > 100 | > 100 | > 100 | 93.9 | > 100 | > 100 | > 100 | > 100 | > 100 | 57.7 | > 100 | > 100 | > 100
22 | COC(=O)C12OC(C)(C(CC(=O)OC(C)(C)C)C1=O)C1C(=O)N(c3ccccc3)C(=O)C12 (centres undefined) | > 100 | > 100 | > 100 | > 100 | > 100 |  | > 100 | > 100 | > 100 | > 100 | > 100 | > 100 | > 100 | > 100 | > 100 | > 100 | > 100 | > 100 | > 100
23 | C/C(=N\NC(=S)NC1CCCC1)c1ccccn1 | 63.9 | 3.48 | > 100 | > 44.1 | > 83.2 | 28.7 | 35.4 | 15 | 42.4 | 10.3 | > 22.4 | > 100 | > 100 | > 100 | > 23.9 | > 100 | 7.8 |  | 
24 | CCOC(=O)c1cc(C2CCN(CC(C)CC)C2=S)c(-c2cc(C)no2)[nH]1 (centres undefined) | > 100 | > 100 | > 100 | > 100 | > 100 | > 100 | > 100 | > 100 |  | > 100 | > 100 | > 100 | > 100 | > 100 | > 100 | > 100 | > 100 | > 100 | > 100
25 | C=C(C(=O)O)C1CCC(CC/C=C(\C)CC/C=C(\C)CCC=C(C)C)CO1 (centres undefined) | 61.8 | 17.8 | 29.3 | 39.3 | 28.4 | 32.6 | 27.8 | 13.1 | 48.6 |  | 39.9 | 79.1 | > 100 | 33.4 | > 100 | 78.6 | > 100 | > 100 | 
26 | CC(C)C1OC2(C)OC(=N)C1(C#N)C(C#N)(C#N)C2C (centres undefined) | > 100 | 78.2 | 41 |  | > 100 | 41.7 | 29.8 | > 100 |  | 33.4 | 79.5 | > 100 | 56.4 | 80.5 | 33.5 | 65.7 | 80.5 | 51.4 | 
